Source: patent US8507555B2, “Non-toxic anti-cancer drug combining ascorbate, magnesium and a naphthoquinone” (Summa Health System, priority 2006, dated 2013)
Read-outs that look alike come from different tables or passages of the source.

Legend:
[1] = system: DU145 Prostate Cancer Cells; assay: MTT cytotoxicity assay, DU145 prostate cancer cells; format: cell-based, human; conditions: read-out: CD50, vitamin alone
Method: (§1) The effect of the new Mg-containing formulation, which combined MgVC2+VK3, on proliferation and survival of cancer cells was evaluated was then evaluated using the MTT assay, a […] assay that measures the number of viable cells in a cell sample. 3-[4,5-dimethylthiazol-2-yl]-2,5-diphenyltetrazolium bromide (MTT) is a chromogen that is converted to a measurable colored product by viable cells. Therefore, the amount of color measured is proportional to the number of viable cells. This assay has been used widely to assess the cytotoxicity and selectivity of anti-cancer drugs because MTT is suitable for rapid toxicity characterization of new drug candidates and formulations. One way of assigning a cytotoxic activity to an agent is by converting the raw date to a CD50 value, which represent the amount (dose) of the agent needed to achieve 50% of the maximal cytotoxic activity. A lower CD50 indicates a greater cytotoxic activity (as a lower amount of the agent is needed to achieve a fixed level of cytotoxicity). Two agents can be compared by examining the fold-increase or decrease in their CD50 values.
(§2) To evaluate the antitumor activity at a MgVC2:VK3 ratio of […], MgVC was combined with VK3 at a MgVC2:VK3 ratio of 100:1 (which is effectively a VC:VK3 ratio of 200:1). The NaVC:K3 formulation was prepared at a ratio of 200:1.
The antitumor activity of the two formulations against a human androgen-independent prostate cancer cell line DU145 was evaluated in the MTT assay.

[2] = system: HS68 Fibroblasts; assay: MTT cytotoxicity assay, HS68 fibroblasts; format: cell-based; conditions: read-out: CD50, vitamin alone
Method: as §1, §2
This indicates a selectivity for tumor vs. “normal” cells.

[3] = system: DNase I; conditions: tumor cells; cited from earlier work
[4] = Homo sapiens, DU-145, 24 h, 1 day
[5] = Homo sapiens, DU-145, 48 h, 2 days
[6] = Homo sapiens, DU-145, 72 h, 3 days

Q: With `CC1=CC(=O)c2ccccc2C1=O` [VK3, 2-methyl-1,4-naphthoquinone] as the molecule, how does the IC50 [1, 4] read?
A: Its IC50 is 37.5 µM.

Q: What about the IC50 [1, 5] of the same molecule?
A: The IC50 was 37.5 µM.

Q: And the IC50 [1, 6]?
A: The IC50 was 37.5 µM.

Q: What about the IC50 ([2]; Homo sapiens, 24 h, 1 day) of the same molecule?
A: Its IC50 is 0.0187 mM.

Q: What about the IC50 ([2]; Homo sapiens, 48 h, 2 days) of the same molecule?
A: The IC50 was 0.019 mM.

Q: And the IC50 ([2]; Homo sapiens, 72 h, 3 days)?
A: The IC50 was 0.0187 mM.

Q: What about the “time of exposure to re-expression of latent DNase I activity” value [3] of the same molecule?
A: Its value is no more than 15 min.

Q: Which IC50 ([1]; 1 day) does the source give for magnesium ascorbate [MgVC2] here?
A: Its IC50 is 2510 µM.

Q: And the IC50 ([1]; 2 days)?
A: The IC50 was 1150 µM.

Q: And the IC50 ([1]; 3 days)?
A: Its IC50 is 432 µM.

Q: And the IC50 ([2]; 1 day)?
A: Its IC50 is 1.66 mM.

Q: And the IC50 ([2]; 2 days)?
A: The IC50 was 1.75 mM.

Q: And the IC50 ([2]; 3 days)?
A: Its IC50 is 1.5 mM.

Q: For `O=C1O[C@H]([C@@H](O)CO)C(O)=C1O` [NaVC, sodium ascorbate], which IC50 [1, 4] is on record?
A: Its IC50 is 3070 µM.

Q: What about the IC50 [1, 5] of the same molecule?
A: The IC50 was 1480 µM.

Q: What about the IC50 [1, 6] of the same molecule?
A: Its IC50 is 994 µM.

Q: And the IC50 ([2]; Homo sapiens, 24 h, 1 day)?
A: Its IC50 is 1.47 mM.

Q: And the IC50 ([2]; Homo sapiens, 48 h, 2 days)?
A: Its IC50 is 1.24 mM.

Q: And the IC50 ([2]; Homo sapiens, 72 h, 3 days)?
A: The IC50 was 1.19 mM.
